# In ChEMBL document CHEMBL1132071, “Benzenesulfonamide derivatives of 2-substituted 4H-3,1-benzoxazin-4-ones and benzthiazin-4-ones as inhibitors of complement C1r protease” (Bioorg Med Chem Lett, 1999):
# Tests used:
# [1] = (§1) Inhibitory activity against hemolysis at 200 uM using suspension of sheep erythrocytes sensitized with antibodies to sheep erythrocytes; type: functional, Ovis aries; set-up: scale not given: the % may be the effect or the level left
# [2] = target: T1, Complement C1r subcomponent (Homo sapiens, UniProt P00736); assay: In vitro inhibition of purified human C1r protease.
# T1 sequence (P00736 whole entry): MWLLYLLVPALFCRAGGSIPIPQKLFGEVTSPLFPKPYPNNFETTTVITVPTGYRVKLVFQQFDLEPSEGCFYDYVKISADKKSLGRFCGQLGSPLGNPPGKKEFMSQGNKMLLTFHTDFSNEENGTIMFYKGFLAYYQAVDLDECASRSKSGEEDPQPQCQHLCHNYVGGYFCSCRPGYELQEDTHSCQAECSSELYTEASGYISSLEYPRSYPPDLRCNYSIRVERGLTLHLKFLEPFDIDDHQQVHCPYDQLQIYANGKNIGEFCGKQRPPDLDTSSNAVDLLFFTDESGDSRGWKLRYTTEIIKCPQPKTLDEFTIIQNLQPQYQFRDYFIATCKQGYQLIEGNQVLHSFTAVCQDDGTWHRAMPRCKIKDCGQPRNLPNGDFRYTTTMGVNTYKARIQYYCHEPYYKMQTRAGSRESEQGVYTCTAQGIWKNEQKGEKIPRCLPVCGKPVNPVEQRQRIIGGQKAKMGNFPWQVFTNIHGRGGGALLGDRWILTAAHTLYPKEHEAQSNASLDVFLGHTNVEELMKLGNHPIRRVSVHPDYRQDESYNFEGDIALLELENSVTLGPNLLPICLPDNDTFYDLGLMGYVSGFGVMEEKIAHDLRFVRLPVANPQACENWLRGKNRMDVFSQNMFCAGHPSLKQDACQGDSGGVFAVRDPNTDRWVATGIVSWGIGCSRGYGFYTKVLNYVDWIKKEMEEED
# [3] = target: T1, Complement C1r subcomponent; assay: Evaluated in vitro for inhibitory activity against purified human C1r protease incubated in buffer for 60 minutes
# [4] = as §1; type: functional; details: Ovis aries
# [5] = Percent of inhibition at 200 uM was determined in hemolysis assay using suspension of sheep erythrocytes sensitized with antibodies to sheep erythrocytes; type: functional, Ovis aries; set-up: scale not given: the % may be the effect or the level left
# [6] = Compound was evaluated for inhibitory activity in hemolysis assay using suspension of sheep erythrocytes sensitized with antibodies to sheep erythrocytes; type: functional, Ovis aries
# [7] = target: T2, Complement C1r subcomponent (Homo sapiens) (UniProt P00736); assay: Compound was evaluated for inhibitory activity against purified human C1r protease at 62 uM was reported after 60 min.
# T2 sequence (whole entry): T1 sequence (P00736 whole entry)
# [8] = target: T2, Complement C1r subcomponent (Homo sapiens); assay: Compound was evaluated for inhibitory activity against purified human C1r protease at 31.2 uM
# [9] = target: T2, Complement C1r subcomponent (Homo sapiens); assay: Compound was evaluated for inhibitory activity against purified human C1r protease at 15 uM concentration
Structure (SMILES),IC50 [2] [µM],IC50 [3] [µM],also measured
CN(c1nc2ccccc2c(=O)s1)S(=O)(=O)c1ccccc1,> 62.5,–,Control [1]: 162%
CN(c1nc2ccccc2c(=O)o1)S(=O)(=O)c1ccccc1Br,2.8,25,–
CN(c1nc2ccccc2c(=O)o1)S(=O)(=O)c1cccc(Cl)c1,24,58,inhibition at 200 µM [4]: 49%
O=c1oc(Nc2ccccc2I)nc2cc(C(F)(F)F)ccc12,–,–,Control [5]: 146%
CN(c1nc2ccccc2c(=O)o1)S(=O)(=O)c1ccc(NC(=N)N)cc1,1.5,3,IC50 [6]: 18 µM
CN(c1nc2ccccc2c(=O)o1)S(=O)(=O)c1cccc2ccccc12,6,10,inhibition at 200 µM [4]: 56%
CN(c1nc2ccccc2c(=O)o1)S(=O)(=O)c1ccc(N)cc1,7,62,IC50 [6]: 8 µM
CCN(c1nc2ccccc2c(=O)o1)S(=O)(=O)c1ccc(Cl)cc1,30,62,–
CN(c1nc2ccccc2c(=O)o1)S(=O)(=O)c1ccc(C#N)cc1,20,–,inhibition [7]: 30%
COc1ccc(S(=O)(=O)N(C)c2nc3ccccc3c(=O)s2)cc1,> 62.5,–,–
CN(c1nc2ccccc2c(=O)o1)S(=O)(=O)c1ccc([N+](=O)[O-])cc1,31,–,–
CN(c1nc2ccccc2c(=O)o1)S(=O)(=O)c1ccc(Cl)cc1,–,> 62,inhibition [8]: 40%
COc1ccc(S(=O)(=O)N(C)c2nc3ccccc3c(=O)o2)cc1,0.7,6,inhibition at 200 µM [4]: 80%
CN(c1nc2ccccc2c(=O)o1)S(=O)(=O)c1ccc(Cl)c(Cl)c1,–,> 62.5,inhibition [9]: 20%
CCN(c1nc2ccccc2c(=O)o1)S(=O)(=O)c1ccccc1,3.2,8.3,inhibition at 200 µM [4]: 86%
CN(c1nc2ccccc2c(=O)o1)S(=O)(=O)c1c(Cl)cccc1Cl,7.5,> 62,–
CN(c1nc2ccccc2c(=O)o1)S(=O)(=O)c1ccc(C(C)(C)C)cc1,> 60,> 60,–
Cc1ccc(S(=O)(=O)N(C)c2nc3ccccc3c(=O)o2)cc1,7.8,–,inhibition [7]: 40%
CN(c1nc2ccccc2c(=O)o1)S(=O)(=O)c1ccccc1,4,6,Control [1]: 162%
N=C(N)Nc1ccc(C(=O)Oc2ccc3cc(C(=N)N)ccc3c2)cc1 [NAFAMOSTAT],–,–,IC50 [6]: 16.6 µM
